These results are taken from the Deep4Chem optical property database.

The data set in a line: photoluminescence quantum yield (fraction); solvent given as SMILES.

Values joined by “and” are separate entries in the source; they are usually repeats but may differ in a detail not shown here. Identical values can stand only once.

On to `CN(C)c1ccc(C2=Nc3scc[n+]3[B-](F)(F)O2)cc1`, for which the photoluminescence quantum yield (in C1CCOC1) came to 0.99, the photoluminescence quantum yield (in CC#N) came out at 0.1, the photoluminescence quantum yield (in Cc1ccccc1) turned out to be 0.99 and the photoluminescence quantum yield (in ClCCl) amounted to 0.86.
`Cc1ccc(C2=Cc3c4ccccc4c4ccccc4[n+]3[B-](F)(F)O2)cc1` showed a photoluminescence quantum yield (in ClC(Cl)Cl) of 0.275.
On the same count and under the same terms, with `C[Si](C)(C)C#Cc1c2c(=O)c3ccccc3c2c(C#C[Si](C)(C)C)c2c(=O)c3ccccc3c12` the figure was 0.08.
`CCCCCCCCCCCCOc1cc2cc(N(C)C)ccc2cc1C=O` registered a photoluminescence quantum yield (in ClCCl) of 0.93.
As to `C[Si](C)(C)C#Cc1ccc(C#Cc2cnc(C#Cc3ccccc3)nc2)cc1`, for the setting “in C1CCCCC1”, the photoluminescence quantum yield amounted to 0.0085.
For the compound `Cc1ccc(C2=C3C=C4C(=[N+]3[B-](F)(F)n3c2cc2c3-c3ccccc3C23c2ccccc2-c2ccccc23)c2ccccc2C42c3ccccc3-c3ccccc32)cc1`, for the setting “in C1CCOC1”, the photoluminescence quantum yield was determined as 0.67.
Consider `CN(C)c1ccc(C#Cc2cc(C#Cc3ccc(C(F)(F)F)cc3)c3ccc4c(C#Cc5ccc(C(F)(F)F)cc5)cc(C#Cc5ccc(C(F)(F)F)cc5)c5ccc2c3c54)cc1`, for which the photoluminescence quantum yield (in ClCCl) is 0.43.
Turning to `C(=C\c1cnc2ccccc2n1)/c1cnccn1`, the photoluminescence quantum yield turned out to be 0.0014 (in CCCCCC); 0.0012 (in CCO); 0.001 (in CO); 0.0014 (in ClCCl); 0.0015 (in c1ccccc1).
`CC(=O)OCCN1C(=O)c2cccc3c(Oc4ccc(C#N)cc4)ccc(c23)C1=O` yielded a photoluminescence quantum yield (in ClC(Cl)Cl) of 0.37.
Turning to `CCOC(=O)C1=CN(c2ccccc2)C=CC1c1ccccc1` (stereo not drawn), the photoluminescence quantum yield by setting is: (in C1CCOC1) 0.12; (in CO) 0.05.
On to `Nc1cc([NH3+])cc(-c2nc3ccccc3s2)c1`, for which the photoluminescence quantum yield (in O) was 0.064.
`C#CCN1C(=O)/C(=C/c2cc(OC(C)C)ccc2OC(C)C)N=C1C`: the photoluminescence quantum yield reads like this: (in C1COCCO1) 0.108; (in CC#N) 0.134; (in CC(C)=O) 0.12; (in CCCCCC) 0.089; (in CCCCO) 0.029; (in CCCO) 0.08. The photoluminescence quantum yield by setting is: (in CCO) 0.025; (in CCOC(C)=O) 0.101; (in CN(C)C=O) 0.171; (in CO) 0.019; (in CS(C)=O) 0.182.
Take `CCC(C)(C)c1ccc(-c2ccc(-c3ccc(C(C)(C)CC)cc3)cc2)cc1`: the photoluminescence quantum yield (in C1COCCO1) worked out at 0.85.
In the case of `CCCCCCCCOc1ccc(C#Cc2ccc3c(c2)c2ccccc2n3CCCCCCCC)c(OCCCCCCCC)c1`, the photoluminescence quantum yield (in ClCCl) was determined as 0.33.
`Clc1ccc(-c2nc(-c3ccccc3)c(N(c3ccccc3)c3ccccc3)s2)cc1` displayed a photoluminescence quantum yield (in ClC(Cl)Cl) of 0.56.
Consider `O=[N+]([O-])c1ccc(/C=C/c2c[nH]c3ccccc23)cc1`, for which the photoluminescence quantum yield by setting is: (in CC#N) 0.009; (in CCCCCCC) 0.051; (in CO) 0.003; (in O) 0.024.
`CC1(C)C(/C=C/c2cc3ccc(O)cc3oc2=O)=[N+](CCCS(=O)(=O)[O-])c2ccccc21`: the photoluminescence quantum yield runs as follows: (in CCO) 0.049; (in CS(C)=O) 0.023; (in O) 0.007.
On to `CCc1c(C)c2n(c1C)[B-](F)(F)[N+]1=C(c3ccc[nH]3)c3ccccc3C1=C2`, for which the photoluminescence quantum yield (in C1CCOC1) turned out to be 0.71; the photoluminescence quantum yield (in CC#N) amounted to 0.74; the photoluminescence quantum yield (in CCCCCC) came to 0.82; the photoluminescence quantum yield (in CO) was determined as 0.65; the photoluminescence quantum yield (in Cc1ccccc1) came to 0.72; the photoluminescence quantum yield (in ClCCl) was 0.66.
In the case of `C(#Cc1ccccc1)C(C#Cc1ccccc1)=Cc1ccc(C=C(C#Cc2ccccc2)C#Cc2ccccc2)s1`, the photoluminescence quantum yield (in ClC(Cl)Cl) is 0.09 and 0.08.
For `N#Cc1nc(N(Cc2ccc(Br)cc2)Cc2ccc(Br)cc2)c(C#N)nc1N(Cc1ccc(Br)cc1)Cc1ccc(Br)cc1`, the photoluminescence quantum yield (in ClC(Cl)Cl) worked out at 0.71.
For the compound `c1cc(N2CCCC2)ccn1`, the photoluminescence quantum yield reads like this: (in CC1CCCCC1) 0.09; (in ClC(Cl)Cl) 0.03.
The compound `Cc1ccc(C)c(C)c1` came in with a photoluminescence quantum yield (in C1CCCCC1) of 0.41.
As to `COc1c2ccccc2c(OC)c2c1c1c(F)cccc1n2C`, the photoluminescence quantum yield is 0.38 (in C1CCCCC1), 0.26 (in CC#N), 0.33 (in CO) and 0.41 (in ClCCl).
Consider `Cc1cccc(C)c1Nc1ccc(/C=C/c2ccc3ccccc3c2)cc1`, for which the photoluminescence quantum yield by setting is: (in CC#N) 0.08; (in CCCCCC) 0.2.
The compound `Cc1cc(C)nc(N)n1` came in with a photoluminescence quantum yield (in CCO) of 0.15, a photoluminescence quantum yield (in CO) of 0.248 and a photoluminescence quantum yield (in O) of 0.048.
As for `CCCCCCN1C(=O)c2cccc3c(-c4ccc(-c5cc(-c6cccc7ccccc67)nn5-c5ccccc5)s4)ccc(c23)C1=O`, the photoluminescence quantum yield (in ClCCl) stood at 0.16.
In the case of `Cc1cc(-c2nc(-c3ccccc3)nc(-c3ccccc3)n2)ccc1-n1c2ccccc2c2cc3c(cc21)C1c2ccccc2C3c2ccccc21`, the photoluminescence quantum yield is, setting by setting: (in Cc1ccccc1) 0.6; (in O=P(c1ccccc1)(c1ccccc1)c1ccccc1Oc1ccccc1P(=O)(c1ccccc1)c1ccccc1) 0.32.
For the compound `Cc1cc(O)c(-c2[nH]c(=O)n3c2-c2ccccc2C3=O)cc1Cl`, the photoluminescence quantum yield stood at 0.56 (in CC#N), 0.3 (in CO) and 0.61 (in ClCCl).
With `Cc1c(C)c(B(c2c(C)c(C)c(C#N)c(C)c2C)c2c(C)c(C)c(N3c4ccccc4Oc4ccccc43)c(C)c2C)c(C)c(C)c1C#N`, the photoluminescence quantum yield (in c1ccc([Si](c2ccccc2)(c2ccc(-n3c4ccccc4c4ccccc43)cc2)c2ccc(-n3c4ccccc4c4ccccc43)cc2)cc1) turned out to be 0.67.
With `CCOC(=O)C1=C(N)n2c(=O)c3ccccc3c(=O)n2C1c1cccs1` (stereo not drawn), for the setting “in CS(C)=O”, the photoluminescence quantum yield amounted to 0.075.
`Cc1ccsc1-c1ccc(-c2ccc(-c3sccc3C)s2)s1`: the photoluminescence quantum yield (in CCC(C)C) stood at 0.19.
On to `Clc1cc(Cl)c(B2c3ccccc3Nc3ccccc32)c(Cl)c1`, for which the photoluminescence quantum yield (in ClCCl) was determined as 0.82.
Same read-out and setting: with `O=c1oc2ccccc2cc1-c1ccc(-c2ccc(-c3cc4ccccc4oc3=O)cc2)cc1` the figure was 0.49.
Under “in Cc1ccccc1”, `Cc1cc(C#N)ccc1N1c2ccccc2C(c2ccccc2)(c2ccccc2)c2ccccc21` gave a photoluminescence quantum yield of 0.12.
For the compound `O=C([O-])c1ccccc1-c1c2cc(Br)c(=O)c(Br)c-2oc2c(Br)c([O-])c(Br)cc12`, the photoluminescence quantum yield is 0.76 (in CC(C)O), 0.69 (in CCO), 0.6 (in CO) and 0.2 (in O).
Take `CN(C)c1ccc(-c2cc(=O)c3ccccc3o2)cc1`: the photoluminescence quantum yield is 0.007 (in C1CCCCC1); 1 (in C1CCOC1); 1 and 0.96 (in CC#N); 1 (in CCOC(C)=O); 0.87 (in CCOCC); 0.095 (in CO). Under “in Cc1ccccc1”, this compound showed a photoluminescence quantum yield of 0.76.
Where the note is “in O”, `CCNc1ccc2c(c1)C(C)(C)C(=O)C=C2` came in with a photoluminescence quantum yield of 0.18.
In the case of `O=Cc1ccc(-c2ccc(O)c(-c3nc4ccccc4s3)c2)o1`, the photoluminescence quantum yield amounted to 0.0246 (in CCO), 0.0632 (in ClCCl) and 0.02 (in O).
In turn, `CCOC(=O)c1ccc(C2=Cc3cc4ccccc4cc3P2(=O)c2ccccc2)cc1` (stereo not drawn) displayed a photoluminescence quantum yield (in ClCCl) of 0.54.
